# Results from patent US9399649B2, “Compounds for treating spinal muscular atrophy” (PTC Therapeutics Inc., priority 2012, dated 2016).
# Test system: full length and Δ7 SMN2 mRNA
# Assay: Endogenous SMN2 mRNA end-point semi-quantitative RT-PCR splicing assay in animal tissues
# Format: in vivo
# Conditions: C/C-allele SMA mice, brain and muscle, oral BID for 10 days, FIG. 7
# Description: The endpoint reverse transcription-PCR (RT-PCR) splicing assay is used to quantify the levels of the full length and Δ7 SMN2 mRNA in tissues from mice treated with test compound.
# C/C-allele SMA mice are treated by oral gavage BID for 10 days with test compounds in 0.5% HPMC and 0.1% Tween-80. Tissue samples are collected and snap frozen for RNA purification.
# Tissue samples (20-40 mg) are homogenized in QIAzol Lysis Reagent for 2 minutes at 20 Hz in the TissueLyser II using one stainless steel bead. After addition of chloroform, the homogenate is separated into aqueous and organic phases by centrifugation. RNA partitioned to the upper, aqueous phase is extracted and ethanol is added to provide appropriate binding conditions. The sample is then applied to the RNeasy spin column from the RNeasy Mini Kit, where total RNA binds to the membrane. The RNA is eluted in RNase-free water then stored at −20° C.
# SMN2 spliced products are identified using the following amplification primers in Table 8. These primers hybridize to a nucleotide sequence in exon 6 (SMN Forward D, SEQ ID NO. 13) (nucleotide 22 to nucleotide 46) and exon 8 (SMN Reverse C, SEQ ID NO. 12), common to human SMN1 and SMN2 mRNA. […]
smiles,measurement,value
"Cc1cn2cc(-c3cc4ccc(N5CCN(C)CC5)cc4c(=O)o3)nc2c(C)n1 [Cpd 65, 3-(6,8-dimethylimidazo[1,2-a]pyrazin-2-yl)-7-(4-methylpiperazin-1-yl)-1H-isochromen-1-one]",SMN2 FL mRNA in tissues (gel band),progressively more SMN2 FL mRNA
same,SMN2 Δ7 mRNA in tissues (gel band),less SMN2 Δ7 mRNA
